US11534446B2, “Pharmaceutical composition comprising 3-beta-hydroxy-5-alpha-pregnan-20-one with improved storage and solubility properties” (ASARINA PHARMA AB, priority 2010, dated 2022)

Experiment: UC1010 concentration in 0.2 μm filtrate of suspensions in sesame oil with cholesterol (Example 77)
Type: physicochemical
Details: sesame oil suspension
Description: Suspensions of 3-beta-hydroxy-5-alpha-pregnan-20-one were prepared for investigation of solubility as follows: cholesterol was first dissolved at room temperature in sesame oil at 10 and 20 mg/ml, respectively. Suspensions of 3-beta-hydroxy-5-alpha-pregnan-20-one in sesame oil with different amounts of cholesterol were prepared on a magnetic stirrer at about 500 rpm using a conventional Teflon coated stir bar, at room temperature for several days, with occasional cycling to 2-8° C. At this time, the particles have become substantially smaller. Thereafter, samples of the respective suspensions were filtered through a 0.2 μm filter and analyzed with regard to concentration of 3-beta-hydroxy-5-alpha-pregnan-20-one. The results are presented in Table 3 and FIG. 2 where it can be seen that increasing the amounts of cholesterol increases the soluble fraction of 3-beta-hydroxy-5-alpha-pregnan-20-one. […] FIGS. 3a and 3b show microscopy pictures taken at 5× enlargement of suspensions with a 3-beta-hydroxy-5-alpha-pregnan-20-one concentration of 10 mg/g and a cholesterol:3-beta-hydroxy-5-alpha-pregnan-20-one ratio of 1:1 immediately upon mixing (3a) and after several days of stirring (3b).

CC(=O)[C@H]1CC[C@H]2[C@@H]3CC[C@H]4C[C@@H](O)CC[C@]4(C)[C@H]3CC[C@]12C [3-beta-hydroxy-5-alpha-pregnan-20-one]
3-beta-hydroxy-5-alpha-pregnan-20-one concentration in filtrate (initial concentration 10 mg/g, weight ratio cholesterol to UC1010 0:1, 0.2 μm filter): 1 mg/mL
3-beta-hydroxy-5-alpha-pregnan-20-one concentration in filtrate (initial concentration 10 mg/g, weight ratio cholesterol to UC1010 1:1, 0.2 μm filter): 1.8 mg/mL
3-beta-hydroxy-5-alpha-pregnan-20-one concentration in filtrate (initial concentration 10 mg/g, weight ratio cholesterol to UC1010 2:1, 0.2 μm filter): 2.2 mg/mL
3-beta-hydroxy-5-alpha-pregnan-20-one concentration in filtrate (initial concentration 40 mg/g, weight ratio cholesterol to UC1010 1:2, 0.2 μm filter): 1.9 mg/mL
3-beta-hydroxy-5-alpha-pregnan-20-one concentration in filtrate (initial concentration 40 mg/g, weight ratio cholesterol to UC1010 1:4, 0.2 μm filter): 1.4 mg/mL
